Data taken from US9802993B2, “Method for producing a cell for protein production by treating a cell overexpressing a taurine transporter with methotrexate” (Chugai Seiyaku Kabushiki Kaisha, priority 2007, dated 2017).

Columns and labels:
Type in all cases: cell-based, Chinese hamster
CHO DXB 11 s host cells = experiment: Sensitivity to MTX (survival rate) of parent host cells in medium without HT; details: 10 nM or 20 nM MTX added; CHO-S-SFM II/CD-CHO mixed medium without HT; FIG. 1
Excerpt: (§1) Into CHO DXB 11 s cells serving as host cells, pHyg-TauT expression plasmids (see Referential Example 2 described later, FIG. 5) were introduced by electroporation to prepare DXB 11 s/TauT host cells in which TauT was strongly expressed. Subsequently, sensitivity to MTX was compared between the DXB 11 s/TauT host cells and the DXB 11 s host cells which were the parent strain.

DXB 11 s/TauT host cells = experiment: Sensitivity to MTX (survival rate) of host cells strongly expressing TauT in medium without HT; details: 10 nM or 20 nM MTX added; CHO-S-SFM II/CD-CHO mixed medium without HT; FIG. 1
Excerpt: as §1

[1] = test system: GC33/DXB11s/TauT/CSAD strain; experiment: Treatment with a high concentration of MTX: proliferation and antibody production ability; details: for amount of antibody production / number of viable cells: recovered, then cultured in 20 nM MTX, 15 mL tubes, initial 1×10^5 cells/mL, FIG. 4
Protocol: The GC33/DXB11s/TauT/CSAD strain, which was most MTX-resistant in Example 1, was subcultured in rotation culture for 28 days using the CHO-S-SFM II/CD-CHO mixed medium to which a high concentration of MTX (100 nM or 200 nM) had been added under the condition of 2×10^5 cells/mL in an initial stage, with the medium replaced every three to five days. […] By 14 days after that, i.e., on the 42nd day, the cells had begun to proliferate. The above two strains in which survival rates were recovered by subculture in the diluted medium (cells treated with 100 nM or 200 nM MTX) were cultured in 15 mL tubes using the CHO-S-SFM II/CD-CHO mixed medium in the presence of 20 nM MTX under the condition of 1×10^5 cells/mL in an initial stage. […] Also, the amount of antibody produced by the TauT/CSAD strain before treatment with a high concentration of MTX was 86 mg/L even when the number of viable cells grew to 19.6×10^5 cells/mL; thus, it was shown that the TauT/CSAD strain before treatment with a high concentration of MTX had the lowest production ability.

[2] = test system: GC33/DXB11s, GC33/DXB11s/TauT and GC33/DXB11s/TauT/CSAD strains; experiment: Sensitivity to 200 nM MTX (survival rate) of anti-glypican-3 antibody-producing strains; details: MTX raised from 20 nM to 200 nM; CHO-S-SFM II/CD-CHO mixed medium; FIG. 2
Excerpt: Then, pPur-CSAD expression plasmids (see Referential Example 4 described later, FIG. 6) were co-introduced into the above GC33/DXB11s/TauT strain to prepare a GC33/DXB11s/TauT/CSAD strain in which CSAD was strongly expressed. Subsequently, sensitivity to MTX of the GC33/DXB11s/TauT strain and the GC33/DXB11 s/TauT/C SAD strain was compared with that of the parent GC33/DXB11s strain. Because the parent strain was a strain capable of producing an antibody in which an antibody gene had been amplified to 20 copies or more (relative to the value before MTX treatment) by treatment with 20 nM MTX, the above strains could stably proliferate in the CHO-S-SFM II/CD-CHO mixed medium to which 20 nM MTX had been added.

With `CN(Cc1cnc2nc(N)nc(N)c2n1)c1ccc(C(=O)N[C@@H](CCC(=O)O)C(=O)O)cc1` [MTX, methotrexate] the survival rate (CHO DXB 11 s host cells) was “a tendency of accelerated decrease in the survival rate was observed”, the survival rate (DXB 11 s/TauT host cells) was “reduction in the survival rate was suppressed at a level equivalent to the survival rate observed in the absence of MTX” and the cell proliferation ([1]; 100 nM or 200 nM MTX, subculture in rotation culture for 28 days, FIG. 3) was “no cell proliferation was observed”. The “amount of antibody production” value ([1]; strain treated with 100 nM MTX) was 162 mg/L, the “number of viable cells” value ([1]; strain treated with 100 nM MTX) was 22.3×10^5 cells/mL and the “amount of antibody production” value ([1]; strain treated with 200 nM MTX) was 144 mg/L. For the same compound, the “number of viable cells” value ([1]; strain treated with 200 nM MTX) was 18.0×10^5 cells/mL and the survival rate [2] was “the survival rates in all of the above strains decreased”.
